PMC7217877, “N-AS-triggered SPMs are direct regulators of microglia in a model of Alzheimer’s disease” (Nature Communications, 2020)
Where “and” joins values, the source holds several entries; their conditions need not be identical. Equal values may be shown once.

Tested on: APP/PS1 mice
Assay: Morris water maze test (Fig 6k-q)
Assay type: in vivo, mouse
Design: Morris water maze learning curve (Figure 6k) / Morris water maze learning curve (Figure 6k), group mean (평균) / Morris water maze, Non-Target quadrant (Figure 6l) / Morris water maze, Target quadrant (Figure 6l) / Morris water maze, A0 (Target quadrant) (Figure 6m) / Morris water maze, quadrant A1 (Figure 6m) / Morris water maze, quadrant A2 (Figure 6m) / Morris water maze, quadrant A3 (Figure 6m): unit not given here
Conditions: for Morris water maze learning curve (Figure 6k), group mean (평균): AD/N-AS group mean; for Morris water maze learning curve (Figure 6k): AD/N-AS individual animals
Procedure: Transgenic mouse lines over-expressing the hAPP695swe (APP) and presenilin-1M146V (PS1) mutations were originated from GlaxoSmithKline (Harlow, UK)[32] and maintained as described previously. We purchased 5×FAD mice from Jackson Labs (Stock number. 34840-JAX). Because APP/PS1 and 5xFAD mice show sex differences in disease progression, we used only male mice. To examine possible therapeutic effect of N-AS and aspirin in APP/PS1 mice, the N-AS (30 mg kg^−1, Sigma-Aldrich, 01912) was injected daily s.c. for 8 weeks to 7-months-old APP/PS1 mice until the age of 9 months, and aspirin (2 mg kg^−1, Sigma-Aldrich, A5376)[33] was administrated orally to 7-months-old APP/PS1 mice for 8 weeks. […] Block randomization method was used to allocate the animals to experimental groups. To eliminate the bias, we were blinded in experimental progress such as data collection and data analysis. Mice were housed at temperature of 22 °C and a 12 h day/12 h night cycle with free access to tap water and food pellets. All protocols were approved by the Kyungpook National University Institutional Animal Care and Use Committee. We performed behavioral studies to assess spatial learning and memory in the Morris water maze as previously described[11],[31]. Animals were given four trials per day for 10 days to learn the task. At day 11, animals were given a probe trial in which the platform was removed. Fear conditioning was conducted by previously described techniques. On the conditioning day, mice were individually placed into the conditioning chamber. After a 60 s exploratory period, a tone (10 kHz, 70 dB) was delivered for 10 s; this served as the conditioned stimulus (CS). The CS co-terminated with the unconditioned stimulus (US), a scrambled electrical footshock (0.3 mA, 1 s). The CS-US pairing was delivered twice at a 20 s intertrial interval. On day 2, each mouse was placed in the fear-conditioning chamber containing the same exact context, but with no administration of a CS or foot shock. Freezing was analyzed for 5 min. On day 3, a mouse was placed in a test chamber that was different from the conditioning chamber. After a 60 s exploratory period, the tone was presented for 60 s without the footshock. The rate of freezing response of mice was used to measure the fear memory. The open field test was used for locomotion and anxious behaviors as previously described. The open field box consisted of a square box. Each animal was placed in the box for 10 min. Overall activity in the box was measured, and the amount of time and distance traveled in the center arena was noted. After each trial, the test chambers were cleaned with a damp towel and distilled water followed by 70% alcohol. The light-dark test was used for assessing the anxiety-like behavior as previously described. One chamber was brightly illuminated, whereas the other chamber was dark. Mice were placed into the dark chamber and allowed to move freely between the two chambers with the door open for 10 min. The total number of transitions, latency to first enter the light chamber, distance traveled, and time spent in each chamber were recorded.

[1] = APP/PS1 + N-AS, individual animals

Structure (SMILES): CCCCCCCCCCCCC/C=C/[C@@H](O)[C@H](CO)NC(C)=O [N-AS, N-((2S,3R,E)-1,3-Dihydroxyoctadec-4-en-2-yl)acetamide]
- Morris water maze, A0 (Target quadrant) (Figure 6m) [1]: 14.5 and 35 and 17.5 and 31.5 and 19.5 and 29.5 and 37.5 and 7.5 and 9.5 and 20 and 10 and 18 and 24 and 10.5 and 30.5 and 43
- Morris water maze, Non-Target quadrant (Figure 6l) [1]: 15.1667 and 8.333 and 14.1667 and 9.5 and 13.5 and 10.1667 and 7.5 and 17.5 and 16.8333 and 13.3333 and 16.6667 and 14 and 12 and 16.5 and 9.833 and 5.667
- Morris water maze, Target quadrant (Figure 6l) [1]: 14.5 and 35 and 17.5 and 31.5 and 19.5 and 29.5 and 37.5 and 7.5 and 9.5 and 20 and 10 and 18 and 24 and 10.5 and 30.5 and 43
- Morris water maze, quadrant A1 (Figure 6m) [1]: 17.5 and 9 (2×) and 20 and 6.5 (2×) and 15.5 (2×) and 32 and 21 and 8.5 and 28 and 14 and 22 and 6 and 3
- Morris water maze, quadrant A2 (Figure 6m) [1]: 16 and 9.5 and 14 and 9 and 21.5 and 19 and 2 and 2.5 and 10 and 15 (2×) and 13.5 and 11.5 and 21 and 19.5 and 7
- Morris water maze, quadrant A3 (Figure 6m) [1]: 12 and 6.5 (2×) and 8.5 and 13 and 10 and 5 (2×) and 18 and 19.5 and 16.5 and 7 (2×) and 14.5 and 9 and 4
- memory formation, Morris water maze (N-AS vs vehicle APP/PS1): largely protected from this defect
- Morris water maze learning curve (Figure 6k), group mean (평균) (day 1): 42.2833
- Morris water maze learning curve (Figure 6k) (day 1): 60 and 38.125 and 47.875 and 37.75 and 40.875 and 47.75 and 32.5 and 22.875 and 46 and 29.25 and 55.625
- Morris water maze learning curve (Figure 6k), group mean (평균) (day 2): 36.025
- Morris water maze learning curve (Figure 6k) (day 2): 40.25 and 39.875 and 60 and 24.625 and 34.625 and 51 and 16.875 and 15.75 and 46.75 and 19.875
- Morris water maze learning curve (Figure 6k), group mean (평균) (day 3): 36.0583
- Morris water maze learning curve (Figure 6k) (day 3): 37.5 and 38.875 and 60 and 43.625 and 20.125 and 43.25 and 17.375 and 42 and 34.75 and 24.875
- Morris water maze learning curve (Figure 6k), group mean (평균) (day 4): 34.2583
- Morris water maze learning curve (Figure 6k) (day 4): 37.125 and 35.25 and 60 and 49.75 and 25.875 and 12 and 37.5 and 8.375 and 36.125
- Morris water maze learning curve (Figure 6k), group mean (평균) (day 5): 34.3417
- Morris water maze learning curve (Figure 6k) (day 5): 43.125 and 17.125 and 55.5 and 30.25 and 26.375 and 55.25 and 23.875 and 38.5 and 13.5 and 31.125
- Morris water maze learning curve (Figure 6k), group mean (평균) (day 6): 32.3333
- Morris water maze learning curve (Figure 6k) (day 6): 28.5 and 25 and 50.375 and 17.375 and 47.125 and 52.75 and 16.25 and 60 and 13.25 and 35.25
- Morris water maze learning curve (Figure 6k), group mean (평균) (day 7): 30.9667
- Morris water maze learning curve (Figure 6k) (day 7): 47.875 and 26.5 and 46.5 and 22.75 and 19 and 33.75 and 27.5 and 50.25 and 12.375 and 43
- Morris water maze learning curve (Figure 6k), group mean (평균) (day 8): 23.3417
- Morris water maze learning curve (Figure 6k) (day 8): 37.125 and 17.75 and 27.875 and 22.625 and 16.625 and 24.375 and 5.5 and 25.125 and 14.875 and 41
- Morris water maze learning curve (Figure 6k), group mean (평균) (day 9): 22.7083
- Morris water maze learning curve (Figure 6k) (day 9): 32.25 and 21.375 and 17.5 and 11.125 and 27.125 and 18.875 and 12.75 and 21.625 and 50.375 and 15.875
- Morris water maze learning curve (Figure 6k), group mean (평균) (day 10): 21.95
- Morris water maze learning curve (Figure 6k) (day 10): 23.625 and 39.125 and 23.5 and 13 and 13.75 and 40.75 and 22.25 and 36.625 and 14.75 and 17.75
